Read-outs that look alike come from different tables or passages of the source.
Experiments:
LXRβ LBD (GST) = biological target: T1, LXRβ LBD (GST) (Homo sapiens, UniProt P55055); test: Time-resolved LXR FRET assay (LanthaScreen TR-FRET LXRβ assay kit); type: biochemical; conditions: for TR-FRET activity on LXRβ, in words: statement made for both isoforms
T1 construct: 5 nM LXRα LBD (GST); 10 nM LXRβ LBD (GST); purchased ThermoFisher Scientific PV4658
T1 sequence (P55055 222-460 limits assumed): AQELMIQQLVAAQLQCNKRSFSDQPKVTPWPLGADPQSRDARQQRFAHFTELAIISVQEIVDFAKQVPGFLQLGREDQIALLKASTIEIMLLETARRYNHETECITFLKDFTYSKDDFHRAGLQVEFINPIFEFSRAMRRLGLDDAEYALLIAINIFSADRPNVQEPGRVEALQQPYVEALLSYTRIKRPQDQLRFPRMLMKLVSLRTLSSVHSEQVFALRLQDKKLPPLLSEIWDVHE
Procedure: (§1) The biochemical TR-FRET assays were performed using the LanthaScreen TR-FRET LXRα Coactivator Assay Kit, goat (ThermoFisher Scientific, PV4655), and the LanthaScreen TR-FRET LXRβ assay kit, goat (ThermoFisher Scientific, PV4658), according to the manufacturer’s instructions using the following concentrations: 5 nM LXRα LBD (GST); 10 nM LXRβ LBD (GST); 500 nM fluorescein-TRAP220/DRIP-2; 200 nM fluorescein-D22; 10 nM Tb anti-GST antibody. The TR-FRET signals were measured after 6 h using a TECAN SPARK multimode microplate reader with the following settings: first excitation wavelength: 360 nm (bandwidth 35 nm), first emission wavelength: 485 nm (bandwidth 20 nm); second excitation wavelength: 360 nm (bandwidth 35 nm), second emission wavelength: 535 nm (bandwidth 25 nm); integration time: 200 μs; lag time: 100 μs; settle time: 0 ms.

LXRα LBD (GST) = biological target: T2, LXRα LBD (GST) (Homo sapiens, UniProt Q13133); test: Time-resolved LXR FRET assay (LanthaScreen TR-FRET LXRα Coactivator Assay Kit); type: biochemical; conditions: for TR-FRET activity on LXRα, in words: statement made for both isoforms
T2 construct: 5 nM LXRα LBD (GST); 10 nM LXRβ LBD (GST); purchased ThermoFisher Scientific PV4655
T2 sequence (Q13133 209-447 limits assumed): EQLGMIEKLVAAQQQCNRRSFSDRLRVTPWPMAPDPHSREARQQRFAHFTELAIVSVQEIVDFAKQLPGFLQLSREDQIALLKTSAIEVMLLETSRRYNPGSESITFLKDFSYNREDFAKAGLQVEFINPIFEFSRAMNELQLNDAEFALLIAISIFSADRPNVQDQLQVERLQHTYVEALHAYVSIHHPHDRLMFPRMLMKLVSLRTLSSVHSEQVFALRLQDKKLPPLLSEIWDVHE
Procedure: as §1

[1] = 10 nM LXRβ LBD (GST), read after 6 h, R^2 of fit given, read-out: TR-FRET activity (EC50) LXRβ
[2] = 5 nM LXRα LBD (GST), read after 6 h, R^2 of fit given, read-out: TR-FRET activity (EC50) LXRα
[3] = supplement list of compounds, (LXRβ), unit inferred, read-out: FRET activity b
[4] = supplement list of compounds, LXRα, unit inferred, read-out: FRET activity a

Row | Compound | EC50 (LXRβ LBD (GST); [1]) [nM] | EC50 (LXRα LBD (GST); [2]) [nM] | TR-FRET activity on LXRβ, in words (LXRβ LBD (GST)) | TR-FRET activity on LXRα, in words (LXRα LBD (GST)) | EC50 (LXRβ LBD (GST); [3]) [nM] | EC50 (LXRα LBD (GST); [4]) [nM]
1 | COc1ccc(NC2=C(c3ccccc3)C(=O)N(Cc3ccc(F)cc3)C2=O)cc1 [Compound 16, 1-(4-Fluorobenzyl)-3-((4-methoxyphenyl)amino)-4-phenyl-1H-pyrrole-2,5-dione] | 594 | 768 |  |  |  | 
2 | COc1ccc(NC2=C(c3ccccc3)C(=O)N(Cc3ccc(C)cc3)C2=O)cc1 [Compound 17, 3-((4-Methoxyphenyl)amino)-1-(4-methylbenzyl)-4-phenyl-1H-pyrrole-2,5-dione] | 332 | 579 |  |  |  | 
3 | COc1ccc(NC2=C(c3ccccc3)C(=O)N(Cc3ccc(C(F)(F)F)cc3)C2=O)cc1 [Compound 18, 3-((4-Methoxyphenyl)amino)-4-phenyl-1-(4-(trifluoromethyl)benzyl)-1H-pyrrole-2,5-dione] | > 3000 | > 3000 | completely lost potency | completely lost potency |  | 
4 | COc1ccc(CN2C(=O)C(Nc3ccc(OC)cc3)=C(c3ccccc3)C2=O)cc1 [Compound 19, 1-(4-Methoxybenzyl)-3-((4-methoxyphenyl)amino)-4-phenyl-1H-pyrrole-2,5-dione] | 592 | 518 |  |  |  | 
5 | COc1ccc(NC2=C(c3ccccc3)C(=O)N(Cc3ccc(C(C)(C)C)cc3)C2=O)cc1 [Compound 20, 1-(4-(tert-Butyl)benzyl)-3-((4-methoxyphenyl)amino)-4-phenyl-1H-pyrrole-2,5-dione] | > 3000 | > 3000 |  |  |  | 
6 | COc1ccc(NC2=C(c3ccccc3)C(=O)N(Cc3ccncc3)C2=O)cc1 [Compound 21, 3-((4-Methoxyphenyl)amino)-4-phenyl-1-(pyridin-4-ylmethyl)-1H-pyrrole-2,5-dione] | 231 | 390 |  |  |  | 
7 | COc1ccc(NC2=C(c3ccccc3)C(=O)N(CC3CCCCC3)C2=O)cc1 [Compound 22, 1-(Cyclohexylmethyl)-3-((4-methoxyphenyl)amino)-4-phenyl-1H-pyrrole-2,5-dione] | 2590 | 1960 |  |  |  | 
8 | COc1ccc(NC2=C(c3ccccc3)C(=O)N(CC3CC3)C2=O)cc1 [Compound 23, 1-(Cyclopropylmethyl)-3-((4-methoxyphenyl)amino)-4-phenyl-1H-pyrrole-2,5-dione] | 163 | 342 |  |  |  | 
9 | COc1ccc(NC2=C(c3ccccc3)C(=O)N(C(C)(C)C)C2=O)cc1 [Compound 24, 1-(tert-Butyl)-3-((4-methoxyphenyl)amino)-4-phenyl-1H-pyrrole-2,5-dione] | 232 | 245 |  |  |  | 
10 | COc1ccc(NC2=C(c3ccccc3)C(=O)NC2=O)cc1 [Compound 25, 3-((4-Methoxyphenyl)amino)-4-phenyl-1H-pyrrole-2,5-dione] | > 3000 | > 3000 | no activity | no activity |  | 
11 | COc1ccc(OC2=C(c3ccccc3)C(=O)N(Cc3ccccc3)C2=O)cc1 [Compound 26, 1-Benzyl-3-(4-methoxyphenoxy)-4-phenyl-1H-pyrrole-2,5-dione] | > 3000 | > 3000 | completely lost activity | completely lost activity |  | 
12 | COc1ccc(CNC2=C(c3ccccc3)C(=O)N(Cc3ccccc3)C2=O)cc1 [Compound 28, 1-Benzyl-3-((4-methoxybenzyl)amino)-4-phenyl-1H-pyrrole-2,5-dione] | > 3000 | > 3000 | no activity | no activity |  | 
13 | O=C1C(Nc2ccccc2)=C(c2ccccc2)C(=O)N1Cc1ccccc1 [Compound 29, 1-Benzyl-3-phenyl-4-(phenylamino)-1H-pyrrole-2,5-dione] | 265 | 312 |  |  |  | 
14 | O=C1C(Nc2ccc(Cl)cc2)=C(c2ccccc2)C(=O)N1Cc1ccccc1 [Compound 30, 1-Benzyl-3-((4-chlorophenyl)amino)-4-phenyl-1H-pyrrole-2,5-dione] | 1180 | 1150 |  |  |  | 
15 | O=C1C(Nc2ccc(F)cc2)=C(c2ccccc2)C(=O)N1Cc1ccccc1 [Compound 31, 1-Benzyl-3-((4-fluorophenyl)amino)-4-phenyl-1H-pyrrole-2,5-dione] | 548 | 335 |  |  |  | 
16 | Cc1ccc(NC2=C(c3ccccc3)C(=O)N(Cc3ccccc3)C2=O)cc1 [Compound 32, 1-Benzyl-3-phenyl-4-(p-tolylamino)-1H-pyrrole-2,5-dione] | 617 | 825 |  |  |  | 

The next lines start with the values.

Row | EC50 (LXRβ LBD (GST); [1]) [nM] | EC50 (LXRα LBD (GST); [2]) [nM] | TR-FRET activity on LXRβ, in words (LXRβ LBD (GST)) | TR-FRET activity on LXRα, in words (LXRα LBD (GST)) | EC50 (LXRβ LBD (GST); [3]) [nM] | EC50 (LXRα LBD (GST); [4]) [nM] | Compound
17 | 206 | 390 |  |  |  |  | O=C1C(Nc2ccc(O)cc2)=C(c2ccccc2)C(=O)N1Cc1ccccc1 [Compound 33, 1-Benzyl-3-((4-hydroxyphenyl)amino)-4-phenyl-1H-pyrrole-2,5-dione]
18 | 133 | 278 |  |  |  |  | O=C1C(Nc2ccc(CO)cc2)=C(c2ccccc2)C(=O)N1Cc1ccccc1 [Compound 34, 1-Benzyl-3-((4-(hydroxymethyl)phenyl)amino)-4-phenyl-1H-pyrrole-2,5-dione]
19 | 91 | 71 |  |  |  |  | CN(C)c1ccc(NC2=C(c3ccccc3)C(=O)N(Cc3ccccc3)C2=O)cc1 [Compound 35, 1-Benzyl-3-((4-(dimethylamino)phenyl)amino)-4-phenyl-1H-pyrrole-2,5-dione]
20 | > 3000 | > 3000 | completely abolished activation | completely abolished activation |  |  | NC(=O)c1ccc(NC2=C(c3ccccc3)C(=O)N(Cc3ccccc3)C2=O)cc1 [Compound 36, 4-((1-Benzyl-2,5-dioxo-4-phenyl-2,5-dihydro-1H-pyrrol-3-yl)amino)benzamide]
21 | 84 | 139 |  |  |  |  | O=C1Cc2cc(NC3=C(c4ccccc4)C(=O)N(Cc4ccccc4)C3=O)ccc2N1 [Compound 37, 1-Benzyl-3-((2-oxoindolin-5-yl)amino)-4-phenyl-1H-pyrrole-2,5-dione]
22 | 45 | 42 |  |  |  |  | O=C1C(Nc2ccc3c(c2)OCO3)=C(c2ccccc2)C(=O)N1Cc1ccccc1 [Compound 38, 3-(Benzo[d][1,3]dioxol-5-ylamino)-1-benzyl-4-phenyl-1H-pyrrole-2,5-dione]
23 | 1320 | 737 |  |  |  |  | COc1cc(NC2=C(c3ccccc3)C(=O)N(Cc3ccccc3)C2=O)cc(OC)c1 [Compound 39, 1-Benzyl-3-((3,5-dimethoxyphenyl)amino)-4-phenyl-1H-pyrrole-2,5-dione]
24 | 106 | 35 |  |  |  |  | O=C1C(Nc2ccc(N3CCOCC3)cc2)=C(c2ccccc2)C(=O)N1Cc1ccccc1 [Compound 41, 1-Benzyl-3-((4-morpholinophenyl)amino)-4-phenyl-1H-pyrrole-2,5-dione]
25 | 123 | 50 |  |  |  |  | O=C1C(Nc2ccc(N3CCSCC3)cc2)=C(c2ccccc2)C(=O)N1Cc1ccccc1 [Compound 42, 1-Benzyl-3-phenyl-4-((4-thiomorpholinophenyl)amino)-1H-pyrrole-2,5-dione]
26 | 283 | 1250 |  |  |  |  | O=C1C(Nc2ccc(N3CCNCC3)cc2)=C(c2ccccc2)C(=O)N1Cc1ccccc1 [Compound 43, 1-Benzyl-3-phenyl-4-((4-(piperazin-1-yl)phenyl)amino)-1H-pyrrole-2,5-dione]
27 |  |  | no relevant activity | no relevant activity | 657 | 379 | CN1CCN(c2ccc(NC3=C(c4ccccc4)C(=O)N(Cc4ccccc4)C3=O)cc2)CC1 [Compound 44, 1-Benzyl-3-((4-(4-methylpiperazin-1-yl)phenyl)amino)-4-phenyl-1H-pyrrole-2,5-dione]
28 |  |  | abolished all activity | abolished all activity | > 3000 | > 3000 | CC(C)(C)OC(=O)NC1CCN(c2ccc(NC3=C(c4ccccc4)C(=O)N(Cc4ccccc4)C3=O)cc2)CC1 [Compound 45, tert-Butyl-(1-(4-((1-benzyl-2,5-dioxo-4-phenyl-2,5-dihydro-1H-pyrrol-3-yl)amino)phenyl)piperidin-4-yl)carbamate]
29 |  |  |  |  |  | 618 | O=C1C(Nc2ccc(NC3CCNCC3)cc2)=C(c2ccccc2)C(=O)N1Cc1ccccc1 [Compound 47, 1-Benzyl-3-phenyl-4-((4-(piperidin-4-ylamino)phenyl)amino)-1H-pyrrole-2,5-dione]

— article PMC11997999, “Uncovering α-Selectivity for Liver X Receptor Agonists for Lipotoxic Cancer Therapies” (Journal of Medicinal Chemistry, 2025)
